Laboratory results reported in publication PMC5074076, “Novel minimal physiologically-based model for the prediction of passive tubular reabsorption and renal excretion clearance” (European Journal of Pharmaceutical Sciences, 2016).
Several values for one entry are separate records, joined by “and”; a condition that tells them apart may be missing. Equal values may be shown once. Read-outs that look alike come from different tables or passages of the source.

Key:
[1] = Ionisation classification at pH 6.5 from pKa; format: physicochemical; conditions: predominant species (> 50%) at pH 6.5 from measured or calculated pKa
From the text: (§1) The pKa values associated with ionisable centres identified within a given drug were used to calculate the fraction of drug ionised at pH 6.5. Drugs were then classified into groups as follows: drugs with > 50% unionised at pH 6.5 were classified as “Neutral”; drugs with > 50% ionised as mono −/di −/tri-protic acids or bases were classified as “Acid” or “Base”, respectively; “Zwitterions” were classified as drugs with > 50% ionised, with the major ionised species having no net charge; all other drugs were classified as amphoteric. […] LogD6.5 for neutral, amphoteric and zwitterion drugs were assumed to be equal to LogD7.4.

[2] = Observed clearance ratio and fraction reabsorbed (Freab, Freab′) calculated from CLR, fu,p and GFR; conditions: for Apparent Freab / Apparent Freab’: calculated from observed CLR, fu,p and GFR; for Freab: observed/apparent, 1 - CLR/(GFR x fu,p), GFR 120 mL/min
Description: The clearance ratio was calculated from clinical data using Eqs. […] For the remaining drugs the fraction reabsorbed (Freab) was calculated using Eq.
GFR values for healthy subjects may vary as a result of biological as well as inter-individual variation and also the method of measurement. […] Individual GFR values for subjects in clinical trials databases were generally not available.
In the proposed model, the nephron is represented as five compartments, namely the glomerulus and four tubular regions, as depicted in Fig. 1. The tubular compartments in the model, listed in anatomical order starting from the glomerulus are: the proximal tubule (PT), the loop of Henle (LoH), the distal tubule (DT) and the collecting duct (CD). […] The relationship between Freab′ and Freab is shown in Eq. (11). The predicted overall Freab′ was calculated from the predicted Freab′ in each (i) tubular region (Freab,i′), as shown in Eq. (12).

[3] = Caco-2 apparent permeability (Papp), apical to basolateral, pH 6.5-7.4 gradient, efflux inhibitor cocktail; conditions: human, Caco-2, pH 6.5
Description: (§2) The assay was performed using the apical to basolateral pH gradient format of pH 6.5 to pH 7.4. […] The efflux transporter inhibitor cocktail was used to minimise the effect of efflux transporters expressed in Caco-2 cells (e.g. P-glycoprotein, BCRP and MRP2) on the estimate of apical to basolateral Papp of substrates for such transporters.

[4] = Papp-Freab′ calibration of Caco-2 Papp with reference drugs and CLR prediction; set-up: species or system human; conditions: reference drugs; calibrated Caco-2 Papp after Hill equation fitting
From the text: To account for this and to allow the Caco-2 data in the present study to be transferable to other assay formats/laboratories, a Papp–Freab′ calibration method was explored by splitting the available Papp and Freab′ data into ‘reference’ and internal ‘validation’ subsets. […] The calibration approach is proposed as a pragmatic method to account for inter-assay/inter-laboratory differences; herein it is applied to the current dataset only, and not external data as intended for future studies.
In order to evaluate the application of Papp–Freab′ calibration (Eq. (17)), 11 drugs were selected as reference ‘calibrator’ drugs (Papp,ref) covering a representative range of Freab′ and Papp values (Table 5). The remaining 34 drugs were treated as an internal ‘validation’ set.

[5] = cited from earlier work; for CLR: healthy adult subjects, overall weighted mean of literature values, absolute (not normalised), ref Supplementary Results Table S2.1; for Overall weighted mean CLR: healthy subjects, plasma and urine data from same subjects, normalised for subject weight and body surface area where necessary; for Overall weighted mean CLR / CLR Observed: ref Table S2.1; for CLR Observed: overall weighted mean of values obtained from a literature survey
[6] = LogD7.4 octanol-buffer, shake-flask (or ACD / BioByte); conditions: octanol/buffer, pH 7.4
From the text: as §1

[7] = pKa, potentiometric AstraZeneca in-house assay (or ACD / BioByte); conditions: measured, potentiometric
From the text: as §1

Caco-2 cell monolayers = assay: Caco-2 apparent permeability (Papp), apical to basolateral, pH 6.5-7.4 gradient, efflux inhibitor cocktail; conditions: Caco-2, apical to basolateral, pH 6.5 to 7.4, efflux inhibitor cocktail, 2 h
Description: as §2

[8] = LogD6.5 estimated from LogD7.4 and pKa; conditions: octanol/buffer, pH 6.5
From the text: as §1

in vitro = conditions: human, Caco-2, pH 6.5
Description: as §2

[9] = set-up: method as in Hammarlund et al., 1985; Swärd et al., 2005; conditions: healthy subjects or cardiac surgery patients, well hydrated; ref Hammarlund et al., 1985; Swärd et al., 2005; cited from earlier work

Structure (SMILES)	Ionisation at pH 6.5 [1]	Apparent Freab [2]	Apparent Freab’ [2]	Freab [2]	Papp A→B at 2 h [3] [×10⁻⁶ cm/s]	Papp,ref,calibrated [4]	CLR [5]	Overall weighted mean CLR [5] [mL/min]	CLR Observed [5] [mL/min]	logD [6]	pKa ([7]; pKa (base))	Papp (Caco-2 cell monolayers)	Freab ([2]; listed as isoxicam)	Freab′ ([2]; observed, fraction of equilibrium reached between urine and plasma)	logD [8]	CLR ([5]; listed as isoxicam) [mL/min]	pKa ([7]; pKa (acid))	Freab ([2]; listed as probenecid)	Papp A→B (in vitro) [×10⁻⁶ cm/s]	increase in urine flow compared to control conditions [9]
NC(=O)c1ncn([C@@H]2O[C@H](CO)[C@@H](O)[C@H]2O)n1 [Ribavirin]	Neutral	0.084	0.085	0.08	1.55	0.03 × 10^− 6 cm/s	109.9 mL/min and 110 mL/min	109.9	109.94											
CC(C)NCC(O)COc1ccc(CCOCC2CC2)cc1 (centres unmarked) [Betaxolol]	Base	0.081	0.081	0.08	20		49.6 mL/min	49.6	49.64	0.63	9.53									
C=CCOc1ccccc1OCC(O)CNC(C)C (centres unmarked) [Oxprenolol]	Base	0.443	0.447	0.44	30	12.00 × 10^− 6 cm/s	9.35 mL/min	9.4	9.35	0.23	9.6	29.95 × 10^− 6 cm/s								
CN(C)[C@@H]1C(O)=C(C(N)=O)C(=O)[C@@]2(O)C(O)=C3C(=O)c4c(O)cccc4[C@@](C)(O)[C@H]3[C@H](O)[C@@H]12 [Oxytetracycline]	Zwitterion	0.019	0.019	0.02	0.85	0.01 × 10^− 6 cm/s	90.8 mL/min	90.8	90.80			0.85 × 10^− 6 cm/s								
Cc1cc(NC(=O)C2=C(O)c3ccccc3S(=O)(=O)N2C)no1 [Isoxicam]	Acid	0.995	1.003	1.00	142		0.02 mL/min		0.02				≥ 0.99	1	0.7	0.022	3.84			
CCCCC1=NC2(CCCC2)C(=O)N1Cc1ccc(-c2ccccc2-c2nnn[nH]2)cc1 [Irbesartan]	Acid	0.623	0.628	0.62	44		2.37 mL/min	2.4	2.37	1.29					2.19		3.91			
CCCN(CCC)S(=O)(=O)c1ccc(C(=O)O)cc1 [Probenecid]	Acid	0.955	0.963	0.96	84.5		0.50 mL/min	0.5	0.50						0.76		3.36	0.955		
C[C@@H](c1ncncc1F)[C@](O)(Cn1cncn1)c1ccc(F)cc1F [Voriconazole]	Neutral				96.5	134.68 × 10^− 6 cm/s	1.57 mL/min	1.6	1.57	1.7		96.51 × 10^− 6 cm/s			1.7					
NCC1(CC(=O)O)CCCCC1 [Gabapentin]	Zwitterion	0.183	0.185	0.18			95.1 mL/min	95.1	95.05										0.67	
NS(=O)(=O)c1cc(C(=O)O)c(NCc2ccco2)cc1Cl [Furosemide]																				up to 20 mL/ min
Cc1cccc(C)c1NC(=O)C(C)N (centres unmarked) [Tocainide]	Base	0.181	0.183	0.18	19	4.68 × 10^− 6 cm/s	67.5 mL/min	67.5	67.50	0.03		19 × 10^− 6 cm/s								
CCCNC(=O)NS(=O)(=O)c1ccc(Cl)cc1 [Chlorpropamide]	Acid	0.907	0.915	0.91	88.1	111.60 × 10^− 6 cm/s	0.56 mL/min	0.6	0.56			88.1 × 10^− 6 cm/s			0.56		4.69			
C[C@@H]1CN(c2c(F)c(N)c3c(=O)c(C(=O)O)cn(C4CC4)c3c2F)C[C@H](C)N1 [Sparfloxacin]	Zwitterion	0.731	0.737	0.73	49.8	34.35 × 10^− 6 cm/s	21.7 mL/min	21.7	21.69		8.94	49.83 × 10^− 6 cm/s					6.31			
